We go through 2 compounds from patent US20130040903A1, “PHARMACEUTICAL COMPOSITIONS FOR TREATING DEPRESSION AND ANXIETY” (priority 2007, published 2013).

In one experiment the test system is Kunming (KM) mice. In words: Mouse light-dark transition experiment (Experiments 3, 10). The format is in vivo. Conditions: 2.5 mg/kg into the stomach once daily 7 days, within 10 minutes. The protocol:
3.5.1 Group division and administration of drug: The mice are grouped randomly as 5 groups, and 10 mice are in each group. 1. High dose of Embodiment 1 (80 mg/kg); 2. middle dose of Embodiment 1 (40 mg/kg); 3. low dose of Embodiment 1 (20 mg/kg); 4. Diazepam (2.5 mg/kg); and 5. physiological saline (normal saline, NS). The drugs are fed into the mouse stomach once every day, and the mouse is administered for continuous 7 days. In the period of administration, the mouse eats and drinks freely, and the experiment is proceeded after 1 hour of the last administration of drug on the eighth day.
Mouse light-dark transition test: The dark chamber occupies one third of the light-dark transition chamber (44 cm×21 cm×21 cm), and the top is capped. The light chamber occupies two third thereof and is illuminated brightly. […] The times that the mouse enters into the dark chamber and returns to the light chamber within 10 minutes are determined, and the times thereof are being the index for evaluating the anti-anxiety function of the drugs. […]
Mouse light-dark transition test: The dark chamber occupies one third of the light-dark transition chamber (44 cm×21 cm×21 cm), and the top is capped. […] The times that the mouse enters into the dark chamber and returns to the light chamber within 10 minutes are determined, and the times thereof are being the index for evaluating the anti-anxiety function of the drugs.

Another experiment has as its system ICR mice. Put plainly: Resetpine-induced mouse body temperature decrease experiment (Experiments 2, 5, 7). The format is in vivo. Conditions: Experiment 5; 3 mg/kg P.O. 7 days; 4 hours after Resetpine 2 mg/kg i.p. The protocol:
2.5.1 Group division and administration of drug: The mice are grouped randomly, and 10 mice are in each group. 1. High dose of Embodiment 1 (80 mg/kg, P.O., administered for 7 days); 2. middle dose of Embodiment 1 (40 mg/kg, P.O., administered for 7 days); 3. low dose of Embodiment 1 (20 mg/kg, P.O., administered for 7 days); 4.
2.5.2 Experimental method: After 1 hour of the last administration of drug on the eighth day, the mouse's anal temperature is determined. Then 2 mg of Resetpine per kilogram of the body weight is given by intraperitoneal injection. After 4 hours of injecting Resetpine, mouse's anal temperature is determined once again. The depth and time of injecting the thermometer into mouse's anus are identical in each temperature measurement.
5.5.1 Group division and administration of drug: The mice are grouped randomly, and 10 mice are in each group. 1. […]
5.5.2 Experimental method: After 1 hour of the last administration of drug on the eighth day, the mouse's anal temperature is determined. […] After 4 hours of injecting Resetpine, mouse's anal temperature is determined once again. […]
2.5.2 Experimental method: After 1 hour of the last administration of drug on the eighth day, the mouse's anal temperature is determined. […] After 4 hours of injecting Resetpine, mouse's anal temperature is determined once again. […]

For `CN1C(=O)CN=C(c2ccccc2)c2cc(Cl)ccc21` [Diazepam], the “Times of passing from dark chamber to light chamber” value is 11.3 ± 4.54 in the experiment with Kunming (KM) mice (Experiment 3) and 11.7 ± 4.47 with Kunming (KM) mice (Experiment 10). Turning to `Fc1ccc([C@@H]2CCNC[C@H]2COc2ccc3c(c2)OCO3)cc1` [Paroxetine], the Time of non-movement in the experiment on ICR mice was 2.38 ± 0.69 s.
